{"source": "patent US11337922B2", "about": "“Lipid particle formulations for delivery of RNA and water-soluble therapeutically effective compounds to a target cell” (BioNTech RNA Pharmaceuticals GmbH, priority 2015, dated 2022)", "system": "Vγ9Vδ2 T cells", "assay": "γ9δ2 T cell proliferation/expansion after coculture of ZA-loaded iDCs with PBLs", "type": "cell-based, human", "conditions": "7-day coculture of ZA-loaded iDCs with PBLs", "description": "To check the functionality of the retained compound, ZA, the expansion of γ9δ2 T cells was evaluated after cocultivation of ZA-loaded iDCs with cryopreserved PBLs.\nFor evaluation of ex vivo frequency of γ9δ2 T cells freshly isolated PBMCs were stained with anti-CD3, anti-TCR-Vδ2 mABs and analysed via flow cytometry. Therefore, iDCs have been incubated as indicated for 24 h in standard medium (1×10^6 cells/mL) containing 5 μM ZA.\nAfter loading with ZA, iDCs have been centrifuged and washed with PBS. The coculture of iDCs with PBLs was setup in a ratio of 20 (iDCs): γ9δ2 T cells ex vivo. The medium was supplemented with 10 U/mL IL-2 (Proleukin). After 7-day incubation cells were harvested, washed and stained with anti-CD3, anti-TCR-Vδ2 mABs to evaluate frequency of γ9δ2 T cells and their expansion via flow cytometry. For analysis the expansion rate was determined dividing whole cell amount of γ9δ2 T cells before or after 7-day-cultivation."}
{"smiles": "O=P(O)(O)C(O)(Cn1ccnc1)P(=O)(O)O", "note": "[free ZA, zoledronic acid]", "values": [{"measurement": "expansion rate of Vγ9δ2 T cells", "result": "about 15 fold"}]}
